Data: patent US12564583B2, “Small molecules against cereblon to enhance effector T cell function” (H. LEE MOFFITT CANCER CENTER AND RESEARCH INSTITUTE, INC., priority 2016, dated 2026)
Non-standard residues stand in square brackets, D forms with d. Residues, ends and D or L forms follow the SMILES beside them. pGlu = O=C1CC[C@@H](C(=O)O)N1

Key:
IL-2 = IL-2 relative to DMSO; type: cell-based
[1] = target: thalidomide binding domain (TBD) of cereblon (Homo sapiens, UniProt Q96SW2); assay: Cereblon binding (DSF, FP/FI); settings: for inhibition at 200 µM: read-out: Cereblon Binding (≥50% inhibition at 200 μM)
Description: Several libraries are available for screening inhibitors. Virtual analysis was formulated and then theoretical design of chemical test kit and virtual screen of test kit were carried out. Physical binding studies were also completed for the initial compounds using DSF and FP assays after they are fully tested. TEST KITs that represent the compounds identified from each of the available chemical libraries based on virtual chemical structures were also made.

[2] = Viability relative to DMSO; type: cell-based; parameters: concentration or dose not given beside the values

Chain of thalidomide binding domain (TBD) of cereblon (Q96SW2 318-426 limits assumed): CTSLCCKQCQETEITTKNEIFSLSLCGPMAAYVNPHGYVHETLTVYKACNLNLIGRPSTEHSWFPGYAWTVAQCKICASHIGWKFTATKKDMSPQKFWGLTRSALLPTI

## O=C1CCC(NCCNC(=O)c2ccccc2)C(=O)N1 (stereo not shown)
IL-2
  IL-2 (%) (Relative to DMSO): 46.7%
[1]
  Cereblon Binding (≥50% inhibition at 200 μM): Yes*
[2]
  viability: 68.2%

## O=C1CC(N2C(=O)c3ccccc3C2=O)C(=O)N1 (stereo not shown)
IL-2
  IL-2 (%) (Relative to DMSO): 10.9%
[1]
  Cereblon Binding (≥50% inhibition at 200 μM): No
[2]
  viability: 75.3%

## O=C1CCC(NC(=O)CCNS(=O)(=O)c2c(F)cccc2F)C(=O)N1 (stereo not shown)
IL-2
  IL-2 (%) (Relative to DMSO): 120.1%
[1]
  inhibition at 200 µM: > 50%
[2]
  viability: 99.4%

## O=C1CCC(NS(=O)(=O)c2ccc3c(c2)OCCCO3)C(=O)N1 (stereo not shown)
IL-2
  IL-2 (%) (Relative to DMSO): 61.6%
[1]
  Cereblon Binding (≥50% inhibition at 200 μM): Yes*
[2]
  viability: 73.6%

## O=C1CCC(N2CCc3ccccc3C2)C(=O)N1 (stereo not shown)
IL-2
  IL-2 (%) (Relative to DMSO): 105.4%
[1]
  Cereblon Binding (≥50% inhibition at 200 μM): Yes*
[2]
  viability: 99.5%

## O=C1CCC(NC(=O)c2ccccc2NC(=O)CCl)C(=O)N1 (stereo not shown)
IL-2
  IL-2 (%) (Relative to DMSO): 40.3%
[1]
  inhibition at 200 µM: > 50%
[2]
  viability: 69.9%

## O=C1CCC(NCc2ccccn2)C(=O)N1 (stereo not shown)
IL-2
  IL-2 (%) (Relative to DMSO): 7.8%
[1]
  inhibition at 200 µM: > 50%
[2]
  viability: 84.9%

## O=c1ccn(CCNS(=O)(=O)Cc2ccccc2)c(=O)[nH]1
IL-2
  IL-2 (%) (Relative to DMSO): 138.2%
[1]
  inhibition at 200 µM: > 50%
[2]
  viability: 76.7%

## O=C(NCCn1ccc(=O)[nH]c1=O)c1ccccc1
IL-2
  IL-2 (%) (Relative to DMSO): 124.5%
[1]
  inhibition at 200 µM: > 50%
[2]
  viability: 84.2%

## O=C1CCN(CCNC(=O)c2ccccc2)C(=O)N1
IL-2
  IL-2 (%) (Relative to DMSO): 47.1%
[1]
  inhibition at 200 µM: > 50%
[2]
  viability: 84.9%

## CCN(Cc1ccccc1)C1CCC(=O)NC1=O (stereo not shown)
IL-2
  IL-2 (%) (Relative to DMSO): 32.1%
[1]
  inhibition at 200 µM: > 50%
[2]
  viability: 99.1%

## Cc1ccc(C(=O)NC2CCC(=O)NC2=O)o1 (stereo not shown)
IL-2
  IL-2 (%) (Relative to DMSO): 48.0%
[1]
  inhibition at 200 µM: > 50%
[2]
  viability: 84.7%

## O=C1CCC(NC(=O)CCNS(=O)(=O)c2ccccc2)C(=O)N1 (stereo not shown)
IL-2
  IL-2 (%) (Relative to DMSO): 32.7%
[1]
  inhibition at 200 µM: > 50%
[2]
  viability: 77.2%

## COc1ccc2c(c1)CCN(C1CCC(=O)NC1=O)C2 (stereo not shown)
IL-2
  IL-2 (%) (Relative to DMSO): 79.0%
[1]
  Cereblon Binding (≥50% inhibition at 200 μM): Yes*
[2]
  viability: 74.4%

## O=c1ccn(CCCc2ccccc2)c(=O)[nH]1
IL-2
  IL-2 (%) (Relative to DMSO): 99.7%
[1]
  Cereblon Binding (≥50% inhibition at 200 μM): Yes*
[2]
  viability: 93.1%

## O=C1CCC(NCc2ccccc2)C(=O)N1 (stereo not shown)
IL-2
  IL-2 (%) (Relative to DMSO): 40.4%
[1]
  inhibition at 200 µM: > 50%
[2]
  viability: 98%

## Nc1cccc2c1CN(C1CCC(=O)NC1=O)C2=O (stereo not shown) [drawing 75]
[2]
  viability: 99.9%

## O=C1CCC(N2CCc3ccc([N+](=O)[O-])cc3C2)C(=O)N1 (stereo not shown)
IL-2
  IL-2 (%) (Relative to DMSO): 23.0%
[1]
  Cereblon Binding (≥50% inhibition at 200 μM): Yes*
[2]
  viability: 84.2%

## O=C1CCC(N2CCC(c3ccccc3)CC2)C(=O)N1 (stereo not shown)
IL-2
  IL-2 (%) (Relative to DMSO): 41.5%
[1]
  inhibition at 200 µM: > 50%
[2]
  viability: 100%

## O=C1CCC(N2CCc3ccc(O)cc3C2)C(=O)N1 (stereo not shown)
IL-2
  IL-2 (%) (Relative to DMSO): 32.2%
[1]
  Cereblon Binding (≥50% inhibition at 200 μM): Yes*
[2]
  viability: 102%

## O=C1C[C@H](N2C(=O)c3ccccc3C2=O)C(=O)N1
IL-2
  IL-2 (%) (Relative to DMSO): 44.4%
[1]
  Cereblon Binding (≥50% inhibition at 200 μM): No
[2]
  viability: 85.6%

## O=C1NC(=O)c2ccccc21
IL-2
  IL-2 (%) (Relative to DMSO): 110.8%
[1]
  Cereblon Binding (≥50% inhibition at 200 μM): No
[2]
  viability: 92.4%

## O=C1CCC(N2Cc3ccccc3C2)C(=O)N1 (stereo not shown)
IL-2
  IL-2 (%) (Relative to DMSO): 69.0%
[1]
  Cereblon Binding (≥50% inhibition at 200 μM): Yes*
[2]
  viability: 84.8%

## O=C1CCC(NS(=O)(=O)c2cccc([N+](=O)[O-])c2)C(=O)N1 (stereo not shown)
IL-2
  IL-2 (%) (Relative to DMSO): 143.7%
[1]
  Cereblon Binding (≥50% inhibition at 200 μM): Yes*
[2]
  viability: 80%

## Nc1cc(Cl)ccc1C(=O)NCCn1ccc(=O)[nH]c1=O
IL-2
  IL-2 (%) (Relative to DMSO): 67.3%
[1]
  Cereblon Binding (≥50% inhibition at 200 μM): Yes*
[2]
  viability: 70.4%

## O=c1ccn(CCCc2ccc(Cl)cc2)c(=O)[nH]1
IL-2
  IL-2 (%) (Relative to DMSO): 93.9%
[1]
  Cereblon Binding (≥50% inhibition at 200 μM): Yes*
[2]
  viability: 90.7%

## O=C1CCC(NCc2ccc(N3CCOCC3)cc2)C(=O)N1 (stereo not shown)
IL-2
  IL-2 (%) (Relative to DMSO): 14.9%
[1]
  inhibition at 200 µM: > 50%
[2]
  viability: 94.5%

## CC(C)C[C@H](NC(=O)[C@@H]1CCC(=O)N1)C(N)=O ([pGlu]-Leu-NH2)
IL-2
  IL-2 (%) (Relative to DMSO): 24.6%
[1]
  Cereblon Binding (≥50% inhibition at 200 μM): No
[2]
  viability: 110%

## CNc1ccccc1C(=O)NCCn1cc(F)c(=O)[nH]c1=O
IL-2
  IL-2 (%) (Relative to DMSO): 75.1%
[1]
  Cereblon Binding (≥50% inhibition at 200 μM): Yes*
[2]
  viability: 79.2%

## CNc1ccccc1C(=O)NCCn1ccc(=O)[nH]c1=O
IL-2
  IL-2 (%) (Relative to DMSO): 158.7%
[1]
  inhibition at 200 µM: > 50%
[2]
  viability: 97%

## O=C1CC[C@@H](C(=O)Nc2ccccc2)N1
IL-2
  IL-2 (%) (Relative to DMSO): 0.5%
[1]
  Cereblon Binding (≥50% inhibition at 200 μM): No
[2]
  viability: 106%

## Nc1cccc(F)c1C(=O)NCCn1ccc(=O)[nH]c1=O
IL-2
  IL-2 (%) (Relative to DMSO): 107.0%
[1]
  Cereblon Binding (≥50% inhibition at 200 μM): Yes*
[2]
  viability: 95%

## Cn1cncc1C(=O)NC1CCC(=O)NC1=O (stereo not shown)
IL-2
  IL-2 (%) (Relative to DMSO): 148.0%
[1]
  inhibition at 200 µM: > 50%
[2]
  viability: 95.3%

## CNc1ccccc1C(=O)NCCN1CCC(=O)NC1=O
IL-2
  IL-2 (%) (Relative to DMSO): 167.5%
[1]
  Cereblon Binding (≥50% inhibition at 200 μM): Yes*
[2]
  viability: 101%

## O=c1ccn(Cc2ccccc2)c(=O)[nH]1
IL-2
  IL-2 (%) (Relative to DMSO): 88.2%
[1]
  Cereblon Binding (≥50% inhibition at 200 μM): Yes*
[2]
  viability: 79.5%

## CC(=O)N[C@H](C(=O)NC1CCC(=O)NC1=O)C(C)C (stereo partly shown)
IL-2
  IL-2 (%) (Relative to DMSO): 126.4%
[1]
  Cereblon Binding (≥50% inhibition at 200 μM): DSF (check) FI (borderline)
[2]
  viability: 79.4%

## Nc1ccccc1S(=O)(=O)NC1CCC(=O)NC1=O (stereo not shown)
IL-2
  IL-2 (%) (Relative to DMSO): 54.7%
[1]
  Cereblon Binding (≥50% inhibition at 200 μM): Yes*
[2]
  viability: 99.1%

## Nc1cccc2c1CN([C@H]1CC(=O)NC1=O)C2=O
IL-2
  IL-2 (%) (Relative to DMSO): 124.9%
[1]
  Cereblon Binding (≥50% inhibition at 200 μM): No

## O=C1CCC(NCc2ccco2)C(=O)N1 (stereo not shown)
IL-2
  IL-2 (%) (Relative to DMSO): 136.9%
[1]
  inhibition at 200 µM: > 50%
[2]
  viability: 95.9%

## CN1C(=O)CCC(N2Cc3c(N)cccc3C2=O)C1=O.Cl (stereo not shown)
IL-2
  IL-2 (%) (Relative to DMSO): 199.2%
[1]
  Cereblon Binding (≥50% inhibition at 200 μM): No
[2]
  viability: 106%

## O=C1CN(N2C(=O)c3cccc([N+](=O)[O-])c3C2=O)C(=O)N1
IL-2
  IL-2 (%) (Relative to DMSO): 50.0%
[1]
  Cereblon Binding (≥50% inhibition at 200 μM): No
[2]
  viability: 96.4%

## Nc1ccc2c(c1)CCN(C1CCC(=O)NC1=O)C2 (stereo not shown)
IL-2
  IL-2 (%) (Relative to DMSO): 54.6%
[1]
  Cereblon Binding (≥50% inhibition at 200 μM): Yes*
[2]
  viability: 95.8%

## Nc1cccc2c1C(=O)N(C1CCC(=O)NC1=O)C2=O (stereo not shown) [drawing 76]
IL-2
  IL-2 (%) (Relative to DMSO): 208.6%
[1]
  inhibition at 200 µM: > 50%
[2]
  viability: 96.3%

## COC(=O)c1ccccc1NC(=O)[C@H](CC(=O)NC1CCC(=O)NC1=O)NC(=O)OC(C)(C)C (stereo partly shown)
IL-2
  IL-2 (%) (Relative to DMSO): 25.0%
[1]
  Cereblon Binding (≥50% inhibition at 200 μM): Yes*
[2]
  viability: 85.6%

## Nc1ccc(Cl)cc1C(=O)NCCn1ccc(=O)[nH]c1=O
IL-2
  IL-2 (%) (Relative to DMSO): 51.2%
[1]
  Cereblon Binding (≥50% inhibition at 200 μM): Yes*
[2]
  viability: 74.8%

## Cc1ccc(N)c(C(=O)NCCn2ccc(=O)[nH]c2=O)c1
IL-2
  IL-2 (%) (Relative to DMSO): 83.7%
[1]
  Cereblon Binding (≥50% inhibition at 200 μM): Yes*
[2]
  viability: 75.2%

## O=C1c2ccccc2C(=O)N1c1cc[nH]c(=O)c1
IL-2
  IL-2 (%) (Relative to DMSO): 123.3%
[1]
  Cereblon Binding (≥50% inhibition at 200 μM): No
[2]
  viability: 95.3%

## CC(C)[C@H](NC(=O)c1ccccc1)C(=O)NC1CCC(=O)NC1=O (stereo partly shown)
IL-2
  IL-2 (%) (Relative to DMSO): 84.5%
[1]
  Cereblon Binding (≥50% inhibition at 200 μM): Yes*
[2]
  viability: 99.1%

## Cc1nc2cccc(N)c2c(=O)n1C1CCC(=O)NC1=O (stereo not shown)
IL-2
  IL-2 (%) (Relative to DMSO): 283.4%
[1]
  inhibition at 200 µM: > 50%
[2]
  viability: 84.4%

## O=C1CCC(N2CCc3ccccc32)C(=O)N1 (stereo not shown)
[2]
  viability: 98.7%
